Data reported in patent US5214040A, “Nonsaditive antihistaminics derived from benzimidazoles” (Laboratorios del Dr. Esteve, S.A., priority 1991, dated 1993).

What was measured:
[1] = test system: 48/80-induced death in rats; experiment: Protection against mortality caused by compound 48/80 in rats (antihistaminic activity in vivo); details: Rattus norvegicus, ip, 60 min before 48/80 (0.5 mg/kg, i.v.), survival 4 hours after, read-out: ED-50 (protection from 48/80-induced death)
Description: The antihistaminic activity was studied by determining the protection against the mortality caused by the product 48/80 in rats. This trial was performed according to the technique described by C.
The activity of the products is studied at several doses in order to determine the dose which is capable of protecting 50% of the animals (ED-50).
Finally, the antihistaminic activity of the product of Example 1 is indicated.

rats = experiment: Sedative effect: Irwin test (behaviour of rats); type: in vivo; details: i.p.; for Atax. (ataxia) / pas. (passivity, sedation, prostration): score 0 to 3, 1, 2 and 3 hours after treatment
Description: Pas.: Passivity, sedation, prostration. Quantitative evaluation between 0 and 3. They are performed 1, 2 and 3 hours after the treatment.
Atax.: Ataxia, the modifications of coordination in movement are evaluated. The are evaluated between 0 and 3. They are performed 1, 2 and 3 hours after the treatment.

[2] = Sedative effect: potentiation of pentobarbital-induced duration of sleep; details: for potentiation of pentobarbital-induced duration of sleep (in words): orally; for Potentiation of duration of sleep: p.o., vs control group with pentobarbital 35 mg/kg, s.c.
Description: The studied products were administered orally. […] The duration of sleep was compared with a control group of animals treated only with sodium pentobarbital.

Row | Structure (SMILES) | ED50 [1] [mg/kg] | Atax. (ataxia) (rats; dose 40 mg/kg) | pas. (passivity, sedation, prostration) (rats; dose 40 mg/kg) | potentiation of pentobarbital-induced duration of sleep (in words) ([2]; at a dose of 20 mg/kg) | sedative effect (in words) (rats; Irwin test, rats) | Atax. (ataxia) (rats; dose 80 mg/kg) | pas. (passivity, sedation, prostration) (rats; dose 80 mg/kg) | Potentiation of duration of sleep ([2]; dose 80 mg/kg) [%] | Potentiation of duration of sleep ([2]; dose 160 mg/kg) [%] | potentiation of pentobarbital-induced duration of sleep (in words) ([2]; even at 160 mg/kg, the maximum dose tested)
1 | CN(C)CCOC(c1ccccc1)c1ccccc1 [Difenhidramine, reference compound] | 5.4 | 0.9 | 0 | significantly potentiates | – | – | – | – | – | –
2 | CCOCCn1c(CN2CCCN(CCCCn3cccn3)CC2)nc2ccccc21 [Example 1, 1-(2-ethoxyethyl)-2-{4-[4-(pyrazol-1-yl)butyl]homopiperazin-1-ylmethyl}benzimidazole] | 0.04 | – | – | – | very weak sedative effect | 0.2 | 0 | 8 | 1 | does not potentiate
